We go through two molecules from patent US20010019832A1, “Methods for identification using U0126” (priority 2000, published 2001).

In assay [1] the test system is L6 cells. In words: Palmitate oxidation in L6 cells (14CO2 trapping). The format is cell-based, rat. The following applies: for Palmitate oxidation in the presence of 5 mM glucose: data not shown. The text has this:
(§1) The principle of the used glucose/free fatty acid, (FFA) oxidation assay is based on the fact that one of the final products along metabolic pathways of these two substrates is carbon dioxide. Since the substrates are uniformly ^14C labeled, the radioactivity in carbon dioxide trap is a direct measure of metabolic activity in studied cells (Rodbell, M. (1964) J. Biol. Chem. 239: 375-380).
(§2) As further described in International Patent Application No. PCT/SE00/02680, filed Dec. 27, 2000, cells were cultivated until sub-confluence in T-25 Costar flasks. Prior to the experiment, the cells were deprived of serum for 6 hours in DMEM medium containing 5 mM glucose. 3 ml of medium supplemented with (U-^14C)-glucose or (U^14C)-palmitic acid (0.2 μCi/ml) were added to each flask. A filter paper (1.5×5.5 cm) soaked in hyamine solution was rolled up, blotted on a paper towel to remove excess of fluid, and placed carefully into the tube of the device described in International Patent Application No. PCT/SE00/02680. The tube was mounted in the flasks, the screw caps were tightened and cells were incubated at 37° C. for a suitable time period. The reaction was terminated by adding sulfuric acid to the culture medium and the cells were incubated for additional 60 min. The filter paper was removed, cut into small pieces and transferred to scintillation vials. Methanol (0.2 ml) was added to each vial to increase the solubility of hyamine-CO2 in the scintillation fluid. Finally the radioactivity was measured. The remaining cells were washed briefly with ice cold PBS, solubilized with 1 M KOH and the protein content was determined by the Bradford method (Bradford, M. M. (1976) Anal. Biochem. 72: 248-254).
In a cell system, insulin resistance can be provoked experimentally by raising the concentrations of glucose, fat or both in the medium, or by treating the cells with the cytokine Tumor Necrosis Factor alpha (TNF alpha) before insulin stimulation. […] Palmitate oxidation was determined as described in “Experimental methods”. […]

Assay [2] has as its system L6 cells. In words: Glucose uptake rate in L6 cells. The format is cell-based, rat. The following applies: 5 mM glucose; for Glucose uptake rate: U0126 10 μM or PD98059 10 μM for 20 h, insulin 176 nM 1 h before. The method, then: (§3) Glucose uptake was determined as described by Hundal et al. (1994) Biochem. J. 297: 289-295. Briefly, after incubation with insulin for one hour, cell monolayers were rinsed with glucose-free PBS. Glucose uptake was quantified by incubating the cells in the presence of 1 μCi/ml ^3H-2-deoxy-glucose in PBS for 8 min. Uptake of 2-deoxy-glucose was terminated by rapidly aspirating the medium, followed by two successive washes of cell monolayers with ice cold PBS. The cells were lysed in 0.5 M NaOH, followed by liquid scintillation counting. Rates of transport were normalized for protein content in each well.
Glucose uptake rate in L6 cells, in the presence of 5 mM glucose, was determined. The cells were incubated in serum-free medium supplemented with U0126 (10 μM), PD98059 (10 μM) or wortmannin (100 nM) for 20 h. Insulin (176 nM) was added 1 h before the determination of glucose uptake rate. Glucose uptake was determined as described above.

In assay [3] the test system is SH-SY5Y cells. In words: Glucose uptake rate in SH-SY5Y cells. The format is cell-based, human. The following applies: 5 mM glucose, U0126 10 μM or insulin 176 nM added 1 h before. The method, then: as §3
Glucose uptake rate in SH-SY5Y cells in the presence of 5 mM glucose was determined. The cells were incubated in serum-free medium over night. Approximately 20 h later U0126 (10 μM), wortmannin (100 nM) or insulin (176 nM) were added, 1 h before the determination of glucose uptake rate.

For assay [4], the system named is L6 cells. In words: Glucose oxidation in L6 cells (14CO2 trapping). The settings on record: 5 mM glucose; for Glucose oxidation: insulin 176 nM or U0126 10 μM added 1 h before. The format is cell-based, rat.
Text: as §1, §2
Glucose oxidation in L6 cells in the presence of 5 mM glucose was determined as described in “Experimental Methods”. One hour prior to determination of glucose oxidation, insulin or U0126 was added to a concentration of 176 nM or 10 μM, respectively.

Assay [5] concerns PKB. In words: PKB activity in L6 cells. The assay is classed as cell-based, rat. The following applies: differentiated L6 cells, incubated 10 min.
Assay [6] has as its system human skeletal muscle cells (hSkMC). In words: Glucose uptake rate in human skeletal muscle cells. The format is cell-based. The settings on record: 5 mM glucose, insulin 176 nM or U0126 10 μM added 30 min before. The method, then: as §3
Glucose uptake rate in human skeletal muscle cells (hSkMC), in the presence of 5 mM glucose, was determined. The cells were incubated in serum-free medium (PromoCell) for 2 h. Insulin (176 nM) or U0126 (10 μM) were added 30 min before determination of glucose uptake rate.

Assay [7] has as its system INS-1 cells. The following applies: U0126 10 μM, 24 hours. On the procedure: Insulin secretion in INS-1 cells was determined. INS-1 cells were seeded in 24-well plates. Thirty minutes before assay the glucose concentration was decreased to 2.8 mM. After the incubation in low glucose medium, glucose (up to 16 mM) or U0126 (10 μM) were added. After 24 hours, samples were collected and analyzed in the rat insulin ELISA.

For assay [8], the system named is MEK½. The following applies: Favata et al. 1998; cited from earlier work.
In assay [9] the test system is AP-1. The settings on record: Duncia et al. 1998; cited from earlier work.

Consider “insulin: Bovine insulin purchased from Gibco Laboratories”, for which the “Palmitate oxidation in the presence of 5 mM glucose” value in assay [1] was “decreased palmitate oxidation”. For the same molecule, the Glucose uptake rate result in [2] was “increased glucose uptake”; in [3] it was “increased glucose uptake”; in assay [6], “increase glucose uptake”. Also, the Glucose oxidation entry in assay [4] was “increased glucose oxidation”. Moreover, in assay [5], the PKB activity entry was “increased PKB activity three-fold”.

As to `N#CC(=C(N)Sc1ccccc1N)C(C#N)=C(N)Sc1ccccc1N` [U0126, 1,4-diamino-2,3-dicyano-1,4-bis [2-aminophenylthio] butadiene], the “Palmitate oxidation in the presence of 5 mM glucose” value in assay [1] was “decreased palmitate oxidation”. The “Palmitate oxidation during insulin resistant conditions” value in assay [1] (12 mM glucose and 480 μM palmitate for 20 hours, U0126 10 μM 1 h before) is on record as “decreased palmitate oxidation”. In [7], the Insulin secretion entry is given as “increased insulin secretion”. Besides, the “Inhibition of MEK½” value in [8] was “specifically inhibits MEK½ in both the inactive and active forms”. The “Glucose uptake rate, U0126 and insulin incubated together” value in [2] (U0126 10 μM 20 h plus insulin 176 nM 1 h) was “no further increase compared to U0126 alone”. The Glucose uptake rate result in assay [2] was “increased glucose uptake”; in [3], “increased glucose uptake”; in [6], “increase glucose uptake”. Besides, the “Glucose oxidation, U0126 and insulin incubated together” value in [4] (U0126 10 μM plus insulin 176 nM) was “A small increase”. Also, the Glucose oxidation result in [4] was “increased glucose oxidation”. For the same molecule, the “Inhibition of AP-1 transactivation” value in [9] is recorded as “inhibitor of AP-1 transactivation”. In addition, the PKB activity result in [5] is “no effect”.
